Values quoted from earlier work as cited in patent US20080095722A1, “Extended Surface Aggregates in the Treatment of Skin Conditions” (IDEA AG, priority 2004, published 2008).
Read-outs that look alike come from different tables or passages of the source.

Assays:
melanocytes = conditions: cell cultures, cited from earlier work
erythema = conditions: gel base or alcoholic solution; cited from earlier work

## CC(=O)Oc1ccccc1C(=O)O [acetylsalicylic acid]
melanocytes; low concentrations
  effect on melanocytes: stimulate melanocytes
melanocytes; very high concentrations
  effect on melanocytes: may cause melanocyte apoptosis

## COc1ccc2c(c1)c(CC(=O)O)c(C)n2C(=O)c1ccc(Cl)cc1 [indomethacin]
erythema
  inhibition of the appearance of erythema: some inhibition of the appearance of erythema
